Results from PubChem BioAssay (NCI).
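1) Cells in 96-well plates. 2) Compound, 48 h, 5 concentrations. 3) Linear interpolation between surrounding doses. 4) Unreached endpoint = highest concentration. TGI: total growth inhibition.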

Experiments:
Test in all cases: growth of human tumour cells (NCI), 48 h
[1] = test system: U251 CNS
[2] = test system: SF-268 CNS
[3] = test system: A549 NSCLC
[4] = test system: SNB-19 CNS
[5] = test system: NCI-H522 lung
[6] = test system: LOX IMVI melanoma
[7] = test system: SK-MEL-5 melanoma
[8] = test system: UACC-257 melanoma
[9] = test system: K-562 leukemia
[10] = test system: COLO 205 colon
[11] = test system: CCRF-CEM leukemia
[12] = test system: SF-295 CNS
[13] = test system: OVCAR-8 ovarian
[14] = test system: MALME-3M melanoma
[15] = test system: SR leukemia
[16] = test system: 786-0 renal
[17] = test system: MCF7 breast
[18] = test system: DU-145 prostate

Structure (SMILES)	TGI [1] [µM]	TGI [2] [µM]	TGI [3] [µM]	TGI [4] [µM]	TGI [5] [µM]	TGI [6] [µM]	TGI [7] [µM]	TGI [8] [µM]	TGI [9] [µM]	TGI [10] [µM]	TGI [11] [µM]	TGI [12] [µM]	TGI [13] [µM]	TGI [14] [µM]	TGI [15] [µM]	TGI [16] [µM]	TGI [17] [µM]	TGI [18] [µM]
CCOC(=O)/C(=C/c1ccccc1)N(CC)CC	> 100	> 100	> 100	> 100	> 100	> 100	> 100	> 100	> 100	> 100	> 100	> 100	> 100	> 100	> 100	> 100	–	–
CN(C)CCSC(=Nc1ccccc1)n1cccc1	> 100	> 100	> 100	> 100	> 100	> 100	> 100	> 100	> 100	> 100	> 100	> 100	> 100	> 100	> 100	> 100	–	–
N#CC(C(=S)Nc1ccccc1)=C1Nc2ccccc2N1	> 10	> 10	> 10	> 10	> 10	> 10	> 10	> 10	> 10	> 10	> 10	–	> 10	> 10	> 10	> 10	–	–
COc1cc(CO)cc2c1[nH]c1ccccc12	> 25	> 25	> 25	> 25	> 25	> 25	> 25	–	> 25	> 25	> 25	–	> 25	> 25	> 25	> 25	–	–
CC(C)C1COC(C(C)(C)C2=N[C@@H](C(C)C)CO2)=N1 (stereo not given in full)	> 100	> 100	> 100	> 100	> 100	> 100	> 100	> 100	> 100	> 100	> 100	> 100	> 100	> 100	> 100	> 100	–	–
CCOc1cc2cnc3c4cc(OC)c(OC)cc4ccc3c2cc1OC	> 100	> 100	> 100	> 100	> 100	> 100	> 100	> 100	> 100	> 100	88.6	> 100	> 100	> 100	> 100	> 100	–	–
O[C@]12c3ccccc3C1CCCC2N1CCOCC1 (stereo not given in full)	> 100	> 100	> 100	> 100	> 100	> 100	> 100	> 100	> 100	> 100	> 100	> 100	> 100	> 100	–	> 100	–	–
O=C1C2CCCCC2C(=O)N1n1c(Cc2ccccc2)n[nH]c1=O (stereo not given)	> 100	> 100	> 100	> 100	> 100	> 100	> 100	> 100	> 100	> 100	> 100	> 100	> 100	> 100	> 100	> 100	> 100	–
C#C[C@@H](OC(=O)c1ccc([N+](=O)[O-])cc1)[C@@H]1C[C@H]2O[C@@H]([C@H](C/C=C/CC)OC(=O)c3ccc([N+](=O)[O-])cc3)C[C@H]2O1	> 100	> 100	> 100	> 100	> 100	> 100	> 100	> 100	> 100	> 100	> 100	> 100	> 100	> 100	–	> 100	–	> 100
COc1ccc(C2S/C(=C\c3ccc([N+](=O)[O-])cc3)C(=O)N2NC(=O)Cc2ccccc2)cc1 (stereo not given)	> 100	> 100	> 100	–	> 100	> 100	> 100	> 100	> 100	> 100	> 100	> 100	> 100	> 100	> 100	> 100	–	–
O=[N+]([O-])c1ccc2nc(/C=C(\O)c3ccccc3)c(NC34CC5CC(CC(C5)C3)C4)nc2c1	> 10	> 10	–	–	> 10	> 10	> 10	> 10	–	> 10	–	> 10	> 10	> 10	–	> 10	> 10	> 10
CCCCCCCCCc1cc(=O)c2c(O)cc(O)cc2o1	77.2	14.5	35.5	34.7	31.5	44.7	37.6	35.5	26	54.2	44.7	36	40.2	32	32.7	42.8	–	36.7
CC(=O)NC(CCCCN(Cc1ccccc1)C(=O)N(C)N=O)C(=O)NCc1ccccc1 (stereo not given)	> 100	> 100	> 100	> 100	> 100	> 100	> 100	> 100	> 100	> 100	> 100	> 100	> 100	> 100	–	> 100	–	–
CN(C)c1cccc2c(S(=O)(=O)NCCCNCCN)cccc12	> 100	> 100	> 100	> 100	> 100	> 100	35.7	> 100	43.1	32.8	46	> 100	–	> 100	39.1	> 100	–	> 100
Cc1ccc([N+](=O)[O-])cc1NC(=O)/C(CC(=O)c1sc(C(N)=S)nc1C)=N\N	> 100	> 100	> 100	> 100	76.4	> 100	> 100	> 100	> 100	–	79.2	> 100	> 100	> 100	> 100	> 100	–	–
COc1cc2c(cc1OC)C(Cc1cc(Br)c(OC)c(OC)c1)=[N+](C)CC2	> 100	> 100	> 100	> 100	> 100	> 100	> 100	> 100	> 100	> 100	> 100	> 100	> 100	> 100	–	> 100	–	–
CC1(C)OC2C(O1)[C@H]1OC(C(Cl)(Cl)Cl)=N[C@H]1C(I)[C@H]2N1C(=O)c2ccccc2C1=O (stereo not given in full)	> 100	> 100	97.5	> 100	74.5	> 100	> 100	> 100	> 100	> 100	> 100	> 100	> 100	–	65.4	> 100	–	–
O=C(c1nc2ccc(Cl)cc2[nH]c1=O)C(O)c1cccc([N+](=O)[O-])c1 (stereo not given)	> 100	81.5	> 100	> 100	> 100	40	> 100	> 100	> 100	> 100	> 100	> 100	> 100	> 100	> 100	> 100	–	–
CCC1=NC(N/N=C/c2ccco2)=N/C1=C\c1ccco1	> 100	> 100	> 100	> 100	> 100	> 100	> 100	> 100	> 100	> 100	> 100	> 100	> 100	> 100	> 100	> 100	–	> 100
COc1ccc(/C=N/NC(=O)CSc2nc(-c3ccccc3)c(-c3ccccc3)[nH]2)cc1OC	57.8	> 100	> 100	> 100	39.9	44.8	31.3	57.3	–	49.2	> 100	55.9	36.3	35.8	–	81	–	–
NC(=S)N/N=C(/CCN1CCCC1)CC(C1=C(O)C2=CCCCC2OC1=O)c1ccccc1 (stereo not given)	> 100	> 100	> 100	> 100	> 100	> 100	> 100	> 100	> 100	> 100	> 100	> 100	> 100	> 100	> 100	> 100	–	–
COc1ccc([C@H]2[C@@H]3CCc4ccccc4C3=NN2C(N)=S)cc1OC	> 100	> 100	> 100	> 100	59.7	> 100	–	> 100	66.9	–	> 100	–	> 100	> 100	72.4	> 100	–	–
C[C@@H]1C[C@@H]2C(=O)N(c3ccccc3)C(=O)[C@@H]2c2[nH]c3ccc(Br)cc3c21	38.8	> 100	90.1	> 100	78.5	> 100	> 100	> 100	> 100	> 100	> 100	90.9	47.1	> 100	> 100	> 100	–	–
O=C(c1nc2ccc(Cl)cc2[nH]c1=O)C(O)c1ccco1 (stereo not given)	–	> 100	> 100	> 100	32.2	> 100	> 100	> 100	> 100	> 100	> 100	> 100	–	> 100	–	> 100	–	–
FC(F)(F)c1nc2c(ccc3[nH]c4c(-c5ccccc5)nccc4c32)[nH]1	> 100	> 100	> 100	> 100	> 100	> 75.9	> 100	> 100	> 100	> 100	> 69.1	> 100	> 100	> 100	40.7	> 100	–	–
O=C(Cc1ccccc1)N/N=C(/c1nc2ccc([N+](=O)[O-])cc2[nH]c1=O)C(O)c1ccco1 (stereo not given)	> 100	> 100	> 100	–	> 100	> 100	> 100	> 100	> 100	> 100	> 100	> 100	> 100	> 100	> 100	> 100	–	–
O=S(=O)(N1CCCCN(S(=O)(=O)C(F)(F)F)CCCN(S(=O)(=O)C(F)(F)F)CCCCN(S(=O)(=O)C(F)(F)F)CCCN(S(=O)(=O)C(F)(F)F)CCCCN(S(=O)(=O)C(F)(F)F)CCCN(S(=O)(=O)C(F)(F)F)CCCCN(S(=O)(=O)C(F)(F)F)CCC1)C(F)(F)F	> 100	> 31.6	> 31.6	> 31.6	> 31.6	> 31.6	> 31.6	> 31.6	> 31.6	> 100	> 31.6	> 31.6	> 31.6	> 31.6	–	> 100	–	> 31.6
CC(=O)OCc1ncccc1C(OC(C)=O)OC(C)=O	> 100	> 100	> 100	> 100	> 100	> 100	> 100	> 100	> 100	> 100	> 100	> 100	> 100	> 100	> 100	> 100	–	–
